Results as given in patent US6599907B1, “Cystic fibrosis medicaments” (University of Wales College of Medicine, priority 1999, dated 2003).
Where two headings read alike, the source gives them in different places. Marks after values point to notes of the source that are not given here.

What was measured:
[1] = test system: cyclic AMP; experiment: Cyclic AMP content of acini (radioimmunoassay); format: cell-based, rat; settings: for Cyclic AMP (pmol/mg protein), isoproterenol-stimulated: isoproterenol 10 μM alone or + PDE inhibitor (IBMX, Type III, Type IV 1 mM; Type V 0.2 mM), 5 min, n in parentheses
[2] = test system: cyclic GMP; experiment: Cyclic GMP content of acini (radioimmunoassay); format: cell-based, rat; settings: for Cyclic GMP (fmol/mg protein), + Isoproterenol (10 μM) / Cyclic GMP (fmol/mg protein), No Isoproterenol: 5 min, IBMX, Types III, IV 1 mM, Type V 0.2 mM, mean±SEM (n)
[3] = test system: rat submandibular acini; experiment: Mucin secretion from rat submandibular acini ([3H]-glucosamine labelled mucin release); settings: for Mucin Secretion (% basal), isoproterenol-stimulated: isoproterenol 10 μM alone or + PDE inhibitor (IBMX, Type III, Type IV 1 mM; Type V 0.2 mM), 30 min, n in parentheses; for Mucin secretion % basal: wild type mucin secretion
[4] = test system: CFTR; experiment: Correction of CFTR antibody-inhibited β-adrenergic stimulation of mucin secretion in rat submandibular acini; settings: acini containing CFTR antibody; isoproterenol 10 μM + PDE inhibitor (Types III, IV 1 mM; Type V 0.2 mM); 30 min; compared with cpt-cyclic AMP 1 mM
[5] = test system: CFTR; settings: acini containing CFTR antibody; 1 mM; 'has been shown'; cited from earlier work
[6] = target: PDE V (Homo sapiens, UniProt O76074); experiment: PDE V inhibition; format: biochemical

Structure (SMILES)	Cyclic AMP (pmol/mg protein), isoproterenol-stimulated [1]	Cyclic GMP (fmol/mg protein), + Isoproterenol (10 μM) [2]	Cyclic GMP (fmol/mg protein), No Isoproterenol [2]	Mucin Secretion (% basal), isoproterenol-stimulated [3]	Correction of the defective β-adrenergic secretory response (FIG. 1) [4]	Restored secretion, % of the secretion response seen in cells containing an equivalent amount of non-immune IgG [5]	Cyclic AMP (pmol/mg protein), isoproterenol-stimulated ([1]; listed as Type V PDE inhibitor)	cyclic AMP % basal [1]	cyclic GMP % basal [2]	Mucin secretion % basal [3]	IC50 [6]	IC50 ([6]; read-out: PDE V IC50)
C[C@@H]1CC(=O)NN=C1c1ccc(-n2ccc(=O)cc2)cc1 (racemic) [Type III, (R,S)-4,5-dihydro-6-[4-(1,4-dihydro-4-oxopyridin-1-yl)phenyl]-5-methyl-3(2H)-pyridazinone, reference compound]	*1009.6 ± 91.5 (6) pmol/mg protein	47.0 ± 1.8 (4) fmol/mg protein	39.3 ± 2.4 (3) fmol/mg protein	692 ± 238 (6) % basal	ineffective							
CC(C)Cn1c(=O)n(C)c(=O)c2[nH]cnc21 [IBMX, reference compound]	*1252.9 ± 129.6 (6) pmol/mg protein	**55.6 ± 1.6 (8) fmol/mg protein	48.1 ± 5.2 (8) fmol/mg protein	924 ± 290 (6) % basal		approx. 75%						
CC(C)NCC(O)c1ccc(O)c(O)c1 (stereo not drawn) [Isoproterenol, reference compound]	373.0 ± 84.0 (6) pmol/mg protein	45.2 ± 1.6 (4) fmol/mg protein		785 ± 212 (6) % basal								
COc1ccc(C2CNC(=O)C2)cc1OC1CCCC1 (stereo not drawn) [Type IV, 4-(3-cyclopentyloxy-4-methoxyphenyl)-2-pyrrolidinone, reference compound]	**1908.7 ± 150.8 (6) pmol/mg protein	45.2 ± 2.0 (4) fmol/mg protein	40.1 ± 1.5 (3) fmol/mg protein	708 ± 220 (6) % basal	as effective as cpt-cAMP							
CCCOc1ccccc1-c1nc2[nH]cnc2c(=O)[nH]1 [Type V, 1,7-dihydro-2-(2-propoxyphenyl)-6H-purin-6-one]	375.5 ± 95.8 (6) pmol/mg protein	**64.3 ± 3.6 (5) fmol/mg protein	*47.3 ± 2.5 (5) fmol/mg protein	755 ± 243 (6) % basal	as effective as cpt-cAMP		did not potentiate					
CCCOc1ccccc1-c1nc2[nH]cnc2c(=O)[nH]1 [a)]								100 % basal	140 % basal	120 % basal		
CCCOc1ccccc1-c1nc2cnccc2c(=O)[nH]1 [b)]								600* % basal	130 % basal	180* % basal	550 nM	
CNc1ncc2c(=O)[nH]c(-c3ccccc3OC)nc2n1 [c)]								250* % basal	90 % basal	160* % basal		22000 nM
COc1ccccc1-c1nc2cccnc2[nH]1 [d)]								600* % basal	90 % basal	200* % basal		34000 nM
CCCOc1ccccc1-c1nc2nc(N)ncc2c(=O)[nH]1 [e)]								350* % basal	130 % basal	170* % basal		650 nM
CCOc1ccccc1-c1nc2[nH]cnc2c(=O)[nH]1 [f)]								100 % basal	110 % basal	160* % basal		4500 nM
CCCCOc1ccccc1-c1nc2cccnc2[nH]1 [g)]								160* % basal	110 % basal	200* % basal		750 nM
O=c1[nH]c(-c2ccccc2O)nc2[nH]cnc12 [h)]								100 % basal	110 % basal	180* % basal		48000 nM
CCCOc1ccccc1-c1nc2nc(NCC(C)O)ncc2c(=O)[nH]1 (stereo not drawn) [i)]								100 % basal	90 % basal	170* % basal		200 nM
CCOc1ccccc1-c1nc2[nH]c(=O)[nH]c2c(=O)[nH]1 [j)]								100 % basal	140* % basal	160* % basal		1300 nM
